These are literature values, as cited in patent publication US10189872B2, “Crystalline form of nicotinamide riboside” (W. R. Grace & Co.-Conn., priority 2015, dated 2019).

Structures are written as SMILES.

The conditions of this data set: mice on a high-fat diet supplemented with nicotinamide riboside; 2012 study.

For the compound `NC(=O)c1ccc[n+]([C@@H]2O[C@H](CO)[C@@H](O)[C@H]2O)c1` [nicotinamide riboside, Nicotinamide riboside], the “less weight gained than mice eating the same high-fat diet without nicotinamide riboside” value was 60%.
